Structures can show the parent of a compound that is named as a salt. Where two headings read alike, the source gives them in different places.

One assay concerns S. aureus ATCC 6538. Kind of assay: MIC of antibiotics by broth microdilution (CLSI), reference culture. The format is cell-based. The protocol:
(§1) MIC was determined as per the guidelines of Clinical and Laboratory Standards Institute (CLSI 2012). Bacillus coagulans MTCC 25235 suspensions were prepared by suspending 18 h grown bacterial culture in sterile normal saline (0.89% NaCl wt/vol; Himedia, Mumbai India). The turbidity of the bacterial suspension was adjusted to 0.5 McFarland standards (equivalent to 1.5×10^8 colony forming units (CFU)/ml). The antibiotics stock solutions were prepared as per CLSI guidelines and 2-fold serial dilutions were prepared in broth medium (glucose yeast extract acetate broth [GYEA, HiMedia, Mumbai India for Bacillus coagulans MTCC 25235 and Mueller Hinton Broth [MHB, Difco Laboratories, Detroit, Mich USA] for S. aureus) in 100 μl volume in 96-well U bottom microtiter plates (BD Labware, NJ USA). The above-mentioned bacterial suspension was further diluted in the MHB and 100 μl volume of this diluted inoculum was added to each well of the plate resulting in the final inoculum of 5×10^5 CFU/ml in the well and the final concentration of antibiotics ranged from 0.0078 to 4 μg/ml. S. aureus ATCC 6538 was used as reference culture in this study. The plates were incubated at 37° C. for 24 h and were visually read for the absence or presence of turbidity. The minimum concentration of the compound concentration showing no turbidity was recorded as MIC.
Background: In broth dilution the organism is exposed to a series of concentrations in liquid medium.

Assay [1] relates to Bacillus coagulans MTCC 25235. Kind of assay: MIC of antibiotics by broth microdilution (CLSI), antibiotic resistance pattern. The format is cell-based. The protocol:
as §1

Setting [2] is: Staphylococcus aureus, ATCC6538, against S. aureus ATCC 6538, MHB, 37° C., 24 h, read-out: MIC.
The mark [3] stands for this setting: Heyndrickxia coagulans, MTCC25235, against Bacillus coagulans MTCC 25235, GYEA broth, 37° C., 24 h, read-out: MIC.
[4] abbreviates: against S. aureus ATCC 6538, MHB, 37° C., 24 h.
The mark [5] stands for this setting: against Bacillus coagulans MTCC 25235, GYEA broth, 37° C., 24 h.
[6] abbreviates: Staphylococcus aureus, ATCC6538, 24 h.
[7] abbreviates: Heyndrickxia coagulans, MTCC25235, 24 h.

Broadly, the MIC is the smallest concentration in the dilution series that meets the test's criterion for growth inhibition. Regarding `CCC[C@@H]1C[C@@H](C(=O)N[C@@H]([C@H]2O[C@H](SC)[C@H](O)[C@@H](O)[C@H]2O)[C@H](C)Cl)N(C)C1` [Clindamycin hydrochloride], the MIC in the assay with S. aureus ATCC 6538 (setting [2]) worked out at 0.062 µg/mL; in assay [1] (setting [3]), 0.25 µg/mL.

Turning to `O=C(N[C@H](CO)[C@H](O)c1ccc([N+](=O)[O-])cc1)C(Cl)Cl` [Chloramphenicol], the minimal inhibitory concentration (MIC) in the assay with S. aureus ATCC 6538 (setting [2]) was determined as 2 µg/mL; in assay [1] (setting [3]), 0.031 µg/mL.

On to Gentamicin sulphate, for which the MIC came to 0.25 µg/mL with S. aureus ATCC 6538 (setting [4]) and 0.06 µg/mL in assay [1] (setting [5]).

On to `[H]/N=C(/N)N[C@H]1[C@H](O)[C@@H](O)[C@H](O[C@@H]2O[C@@H](C)[C@](O)(C=O)[C@H]2O[C@@H]2O[C@@H](CO)[C@H](O)[C@@H](O)[C@@H]2NC)[C@@H](N/C(N)=N\[H])[C@@H]1O` [Streptomycin sulphate], for which the values for the MIC (with S. aureus ATCC 6538 (setting [2]); in assay [1] (setting [3])) were 4 µg/mL and 0.062 µg/mL, respectively.

As for `CC[C@H]1OC(=O)[C@H](C)[C@@H](O[C@H]2C[C@@](C)(OC)[C@@H](O)[C@H](C)O2)[C@H](C)[C@@H](O[C@@H]2O[C@H](C)C[C@H](N(C)C)[C@H]2O)[C@](C)(O)C[C@@H](C)C(=O)[C@H](C)[C@@H](O)[C@]1(C)O` [Erythromycin], the minimal inhibitory concentration (MIC) (in the assay on S. aureus ATCC 6538 (setting [6]); in assay [1] (setting [7])) was 0.125 µg/mL in each case.

`CN[C@H](CC(C)C)C(=O)N[C@H]1C(=O)N[C@@H](CC(N)=O)C(=O)N[C@H]2C(=O)N[C@H]3C(=O)N[C@H](C(=O)N[C@H](C(=O)O)c4cc(O)cc(O)c4-c4cc3ccc4O)[C@H](O)c3ccc(c(Cl)c3)Oc3cc2cc(c3O[C@@H]2O[C@H](CO)[C@@H](O)[C@H](O)[C@H]2O[C@H]2C[C@](C)(N)[C@H](O)[C@H](C)O2)Oc2ccc(cc2Cl)[C@H]1O` [Vancomycin hydrochloride]: the minimal inhibitory concentration (MIC) came to 0.5 µg/mL in the assay on S. aureus ATCC 6538 (setting [6]) and 0.25 µg/mL in assay [1] (setting [7]).

Take `CN(C)[C@@H]1C(O)=C(C(N)=O)C(=O)[C@@]2(O)C(O)=C3C(=O)c4c(O)cccc4[C@@](C)(O)[C@H]3C[C@@H]12` [Tetracycline hydrochloride]: the MIC with S. aureus ATCC 6538 (setting [2]) is 0.062 µg/mL; in assay [1] (setting [3]) it was 0.03 µg/mL.

Take Kanamycin sulphate: the results for the MIC (in the assay on S. aureus ATCC 6538 (setting [4]); in assay [1] (setting [5])) were 7.0 µg/mL and 0.062 µg/mL, respectively.

`CC1(C)S[C@@H]2[C@H](NC(=O)[C@H](N)c3ccccc3)C(=O)N2[C@H]1C(=O)O` [Ampicillin sodium salt]: the results for the MIC (in the assay on S. aureus ATCC 6538 (setting [2]); in assay [1] (setting [3])) were 0.031 µg/mL and 0.125 µg/mL, respectively.

(Values after patent US12257274B2, “Fructophilic lactic acid producing bacteria” (priority 2019, dated 2025).)
